Series [1] relates to Enterococcus faecalis ATCC 51575 (resistant). It is filed as cell-based. On the procedure: (§1) We screened all five peptides against the ATCC reference strains and the clinical isolates according to Method M7-A7 of the National Committee for Clinical Laboratory Standards (CLSI, [2007]). The MIC50 and MBC values were determined using a broth microdilution and growth inhibition method previously reported by Leon-Calvijo et al. ([2015]), with some modifications (Wiegand et al., [2008]). Briefly, the MIC50 experiments comprised a liquid-inhibition growth assay in a sterile, untreated, 96-well flat-bottom tissue culture plate. The bacteria were cultured overnight n Mueller Hinton agar; three colonies were transferred to 8 mL of Mueller Hilton broth and incubated at 37°C until the mid-exponential phase of growth. The turbidity of the cultures was measured and adjusted spectrophotometrically to a McFarland standard of 0.5, and then diluted to a final concentration of 5 × 10^7 colony forming units (CFU) per well. Stock solutions (2,000 μM) of each test peptide were serially diluted to final concentrations (per well) of 200, 100, 50, 25, 12.5, and 6.25 μM. Each concentration was evaluated in duplicate and each assay was performed in triplicate.
(§2) Wells containing Mueller Hilton broth with bacterial inoculum only served as bacterial-growth controls. Additional controls included Mueller Hilton broth alone (as blank) and Mueller Hilton broth with ciprofloxacin (2 μg/mL; as positive control). The microplate was incubated for 24 h at 37°C, and growth inhibition was measured by monitoring the optical density at 620 nm (OD620). The MIC50 was defined as the peptide concentration at which bacterial growth was inhibited by 50%.
(§3) To determine the MBC, an aliquot from each well of the MIC50 assay was spread onto Mueller Hilton agar. After 18 h at 37°C, the concentration that inhibited bacterial growth was determined. Each of these tests was performed four times. MBC was defined as the lowest concentration of peptide at which the number of bacteria was reduced by 99.9% in vitro (European Committee for Antimicrobial Susceptibility Testing, [2000]).

Series [2] has as its system Pseudomonas aeruginosa ATCC 10145 (sensitive). It is filed as cell-based. On the procedure:
as §1, §2, §3

The subject of series [3] is Pseudomonas aeruginosa ATCC 27853 (resistant). It is filed as cell-based. On the procedure: as §1, §2, §3
For series [4], the system named is Enterococcus faecalis ATCC 29212 (sensitive). It is filed as cell-based. To be noted: ATCC 29212, 18 h. On the procedure: as §1, §2, §3
For a further series, the system named is human erythrocytes. The experiment in a line: Hemolytic activity. It is filed as cell-based. To be noted: red cells of human, 2 h. On the procedure:
Human erythrocytes collected from the blood samples of healthy humans were harvested by centrifugation for 7 min at 162 × g and washed three times in phosphate-buffered saline (PBS). The erythrocytes (2% hematocrit in PBS) were incubated with peptide molecules at several concentrations (6.25, 12.5, 25, 50, and 100 μM) for 2 h at 37°C. PBS was used as negative control for hemolysis, and sterile distilled water was used as positive control (100% hemolysis). The plate was subsequently centrifuged at 1,459 × g for 10 min at 4°C. Aliquots of the supernatant from each well (75 μL) were carefully transferred to a new sterile 96-well plate, and hemolytic activity was evaluated by measuring the OD492 using an Asys Expert Plus Microplate reader. The experiments were performed in duplicate, and hemolytic activity was calculated for each peptide.

Series [5] deals with Gram-negative ATCC strains (K. pneumoniae 13883 and 700603, P. aeruginosa 10145 and 27853). An excerpt:
We determined the therapeutic index of each peptide, which we defined as the ratio of Maximum Hemolytic Activity (Hmax) to MIC50 (Hmax/MIC50).
The therapeutic index (TI) is a ratio of the toxic dose of a substance to its therapeutically-active dose and can be calculated different ways (e.g., LD50/ED50). Here, we calculated a TI value for each peptide against all the Gram-positive or the Gram-negative ATCC strains, by dividing its Hmax by its MIC50 for the given group of strains. […] Additionally, to make our quantitative analysis more robust [geometric mean (Khachatryan et al., [2017]) and fold values], we have included MIC50 values for these peptides against S. aureus and K. pneumoniae that we previously obtained using the same assay, the M7-A7 method of the National Committee for Clinical Laboratory Standards (Leon-Calvijo et al., [2015]).

Here are results for one compound from publication PMC5840262, “Design, Synthesis and Evaluation of Branched RRWQWR-Based Peptides as Antibacterial Agents Against Clinically Relevant Gram-Positive and Gram-Negative Pathogens” (Frontiers in Microbiology, 2018).

Structures are written as SMILES. Converted amounts (≈) assume the structure as drawn.

The term MBC denotes the lowest tested concentration that kills the bacteria rather than only halting them. The low end stands for more potent killing, the high end for less potent killing. Usually MIC50 stands for an inhibitory concentration at the 50% level, which refers to growth in some studies and to a panel of isolates in others. Consider `CSCC[C@H](NC(=O)[C@H](CCCNC(=N)N)NC(=O)[C@H](Cc1c[nH]c2ccccc12)NC(=O)[C@H](CCC(N)=O)NC(=O)[C@H](Cc1c[nH]c2ccccc12)NC(=O)[C@H](CCCNC(=N)N)NC(=O)[C@H](CCCNC(=N)N)NC(=O)[C@H](CS)NC(=O)[C@H](CCCCN)NC(=O)[C@@H](N)Cc1ccccc1)C(=O)N[C@@H](CCCCN)C(=O)N[C@@H](CCCCN)C(=O)N[C@@H](CC(C)C)C(=O)NCC(=O)N[C@@H](C)C(N)=O` [LfcinB (17–31), reference compound], for which the MBC in series [1] (ATCC 51575, 18 h) was more than 200.0 µM; in series [2] (ATCC 10145, 18 h) it was more than 200.0 µM; in series [3] (ATCC 27853, 18 h), more than 200.0 µM; in series [4], more than 200.0 µM. For the same compound, the MIC50 in series [1] (ATCC 51575, 24 h) is more than 200.0 µM; in series [2] (ATCC 10145, 24 h) it was 111.7 µM (≈ 223 µg/mL); in series [3] (ATCC 27853, 24 h) it was 99.6 µM (≈ 199 µg/mL). Further, the “H50, concentration of peptide leading to 50% hemolysis” value in the series with human erythrocytes is more than 100 µM. In addition, in series [5], the “Gm, geometric mean of MIC50 values” amounted to 105.5.
